Data taken from patent US12319684B2 (Sanford Burnham Prebys Medical Discovery Institute, priority 2014, dated 2025).
pEC50: −log10 of the molar value. Like-named read-outs stand apart in the source and are kept apart here.

Biological target: T1, human apelin receptor (APJ, AGTRL-1, APLNR) (Homo sapiens, UniProt P35414)
T1 construct: host or cells: Chinese hamster ovary cells
T1 sequence (P35414 1-380): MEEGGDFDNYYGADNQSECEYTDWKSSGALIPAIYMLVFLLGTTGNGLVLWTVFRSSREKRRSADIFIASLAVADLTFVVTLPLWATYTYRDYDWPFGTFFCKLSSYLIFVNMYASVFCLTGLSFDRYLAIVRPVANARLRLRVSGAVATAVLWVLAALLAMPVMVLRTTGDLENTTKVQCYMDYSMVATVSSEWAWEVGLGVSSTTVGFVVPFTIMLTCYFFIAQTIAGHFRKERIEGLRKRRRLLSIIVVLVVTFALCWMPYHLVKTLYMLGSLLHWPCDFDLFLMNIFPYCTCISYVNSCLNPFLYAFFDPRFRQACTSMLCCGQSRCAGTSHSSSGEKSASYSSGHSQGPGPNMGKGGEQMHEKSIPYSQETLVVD
Test: APJ cAMP cell-based assay (forskolin-stimulated CHO cells, enzyme fragment complementation)
Settings: for Emax: CHO, 0.5 h, read-out: APJ cAMP % resp (efficacy)
Method: The assays disclosed herein were performed using cell lines from DiscoveRx, Inc.
Biological activity was determined in a cell-based assay. This assay detects activation of the receptor by reporting on intracellular cyclic adenosine monophosphate (cAMP) level. Chinese hamster ovary cells engineered to express a stably integrated human apelin receptor (APJ, AGTRL-1, APLNR), were plated into the wells of a microtiter plate. Cells were stimulated with forskolin to increase intracellular cAMP. Immediately following, compounds were added at a range of final concentrations 0.0-100 μM, in DMSO (not to exceed a final DMSO concentration of >1% v/v), and allowed to incubate with the cells for 0.5 h. At the end of the incubation, cells were lysed to stop APJ signaling, and cAMP was quantified using a commercially available assay kit that applies enzyme fragment complementation technology and bioluminescence, in a competitive ELISA format.
Compound efficacy (% resp) is reported as a percentage of the maximal apelin-13 response at 1 nM (control).

[1] = CHO cells expressing human APJ, forskolin-stimulated, 0.5 h incubation, 50% of control (apelin-13, 1 nM) response, read-out: APJ cAMP EC50
[2] = percentage of the maximal apelin-13 response at 1 nM (control)

Row | pEC50 [1] | Emax [2] [%] | Structure (SMILES) | pEC50 | Emax [%]
1 | 4.95 | 159 | COc1ccccc1-n1c(SCc2cccc(C)c2)nnc1-c1cccs1 [Example 76, 4-(2-Methoxy-phenyl)-3-(3-methyl-benzylsulfanyl)-5-thiophen-2-yl-4H-[1,2,4]triazole] | – | –
2 | 5.56 | 70 | COc1ccccc1-n1c(SCc2ccc(C)cc2)nnc1-c1cccs1 [Example 75, 4-(2-Methoxy-phenyl)-3-(4-methyl-benzylsulfanyl)-5-thiophen-2-yl-4H-[1,2,4]triazole] | – | –
3 | 6.24 | 160 | COc1ccccc1-n1c(SCc2nc(=O)c3ccc(C(F)(F)F)cc3[nH]2)nnc1-c1cccs1 [Example 60, 2-[4-(2-Methoxy-phenyl)-5-thiophen-2-yl-4H-[1,2,4]triazol-3-ylsulfanylmethyl]-7-trifluoromethyl-1H-quinazolin-4-one] | – | –
4 | 5.99 | 59 | COc1ccccc1-n1c(SCc2nc3cc(C)ccc3c(=O)[nH]2)nnc1-c1cccs1 [Example 53, 2-(((4-(2-methoxyphenyl)-5-(thiophen-2-yl)-4H-1,2,4-triazol-3-yl)thio)methyl)-7-methylquinazolin-4(3H)-one] | – | –
5 | 5.63 | 113 | Cc1cccc(-n2c(SCc3cc(=O)n4cc(C)ccc4n3)nnc2-c2cccs2)c1 [Example 21, 7-Methyl-2-(5-thiophen-2-yl-4-m-tolyl-4H-[1,2,4]triazol-3-ylsulfanylmethyl)-pyrido[1,2-a]pyrimidin-4-one] | – | –
6 | 6.52 | 101 | COc1ccc2[nH]c(CSc3nnc(-c4cccs4)n3-c3ccccc3OC)nc(=O)c2c1 [Example 65, 6-Methoxy-2-[4-(2-methoxy-phenyl)-5-thiophen-2-yl-4H-[1,2,4]triazol-3-ylsulfanylmethyl]-1H-quinazolin-4-one] | – | –
7 | < 5.00 | 33 | COc1ccccc1-n1c(SCc2coc(-c3ccc(Br)cc3)n2)nnc1-c1cccs1 [Example 42, 3-[2-(4-Bromo-phenyl)-oxazol-4-ylmethylsulfanyl]-4-(2-methoxy-phenyl)-5-thiophen-2-yl-4H-[1,2,4]triazole] | – | –
8 | 5.48 | 58 | COc1ccccc1-n1c(SCc2coc(-c3ccc(Cl)cc3)n2)nnc1-c1cccs1 [Example 40, 3-[2-(4-Chloro-phenyl)-oxazol-4-ylmethylsulfanyl]-4-(2-methoxy-phenyl)-5-thiophen-2-yl-4H-[1,2,4]triazole] | – | –
9 | 5.60 | 58 | COc1ccccc1-n1c(SCc2coc(-c3ccc(C)cc3)n2)nnc1-c1cccs1 [Example 41, 4-(2-Methoxy-phenyl)-3-thiophen-2-yl-5-(2-p-tolyl-oxazol-4-ylmethylsulfanyl)-4H-[1,2,4]triazole] | – | –
10 | – | – | COc1ccccc1-n1c(SCc2cc(=O)n3c(C)cccc3n2)nnc1-c1cccs1 [Example 44, 2-[4-(2-Methoxy-phenyl)-5-thiophen-2-yl-4H-[1,2,4]triazol-3-ylsulfanylmethyl]-6-methyl-pyrido[1,2-a]pyrimidin-4-one] | 8.01 | 119
11 | 6.60 | 62 | Cc1ccc2nc(CSc3nnc(-c4cccs4)n3-c3ccccc3Cl)cc(=O)n2c1 [Example 29, 2-[4-(2-Chloro-phenyl)-5-thiophen-2-yl-4H-[1,2,4]triazol-3-ylsulfanylmethyl]-7-methyl-pyrido[1,2-a]pyrimidin-4-one] | – | –
12 | 6.34 | 136 | COc1ccccc1-n1c(SCc2cc(=O)n3cc(C)ccc3n2)nnc1-c1ccc(Cl)s1 [Example 9, 2-[5-(5-Chloro-thiophen-2-yl)-4-(2-methoxy-phenyl)-4H-[1,2,4]triazol-3-ylsulfanylmethyl]-7-methyl-pyrido[1,2-a]pyrimidin-4-one] | – | –
13 | 7.50 | 80 | COc1ccccc1-n1c(SCc2nc(=O)c3cc(Br)ccc3[nH]2)nnc1-c1cccs1 [Example 61, 6-Bromo-2-[4-(2-methoxy-phenyl)-5-thiophen-2-yl-4H-[1,2,4]triazol-3-ylsulfanylmethyl]-1H-quinazolin-4-one] | – | –
14 | < 5.00 | – | COc1ccccc1-n1c(NCc2coc(-c3ccc(C)cc3)n2)nnc1-c1cccs1 [Example 87, [4-(2-Methoxy-phenyl)-5-thiophen-2-yl-4H-[1,2,4]triazol-3-yl]-(2-p-tolyl-oxazol-4-ylmethyl)-amine] | – | –
15 | 7.05 | 109 | COc1ccccc1-n1c(SCc2cc(=O)n3cc(C)ccc3n2)nnc1-c1ccsc1 [Example 17, 2-[4-(2-Methoxy-phenyl)-5-thiophen-3-yl-4H-[1,2,4]triazol-3-ylsulfanylmethyl]-7-methyl-pyrido[1,2-a]pyrimidin-4-one] | – | –
16 | < 5.00 | 52 | COc1ccccc1-n1c(OCc2ccccc2)nnc1-c1cccs1 [Example 82, 3-(benzyloxy)-4-(2-methoxyphenyl)-5-(thiophen-2-yl)-4H-1,2,4-triazole] | – | –
17 | < 5.00 | – | Cc1ccc2nc(CSc3nnc(-c4cccs4)n3-c3ccccc3F)cc(=O)n2c1 [Example 24, 2-[4-(2-Fluoro-phenyl)-5-thiophen-2-yl-4H-[1,2,4]triazol-3-ylsulfanylmethyl]-7-methyl-pyrido[1,2-a]pyrimidin-4-one] | – | –
18 | 6.98 | 93 | COc1ccccc1-n1c(SCc2coc(-c3ccc(F)cc3)n2)nnc1-c1cccs1 [Example 39, 3-[2-(4-Fluoro-phenyl)-oxazol-4-ylmethylsulfanyl]-4-(2-methoxy-phenyl)-5-thiophen-2-yl-4H-[1,2,4]triazole] | – | –
19 | 7.15 | 130 | COc1ccc2nc(CSc3nnc(-c4cccs4)n3-c3ccccc3OC)cc(=O)n2c1 [Example 45, 7-Methoxy-2-[4-(2-methoxy-phenyl)-5-thiophen-2-yl-4H-[1,2,4]triazol-3-ylsulfanylmethyl]-pyrido[1,2-a]pyrimidin-4-one] | – | –
20 | 6.90 | 108 | COc1ccccc1-n1c(SCc2nc(=O)c3ccc(F)cc3[nH]2)nnc1-c1cccs1 [Example 63, 7-Fluoro-2-[4-(2-methoxy-phenyl)-5-thiophen-2-yl-4H-[1,2,4]triazol-3-ylsulfanylmethyl]-1H-quinazolin-4-one] | – | –
21 | 5.85 | 94 | COc1ccccc1-n1c(SCc2cc(=O)n3cc(C)ccc3n2)nnc1-c1ccc(C#N)cc1 [Example 13, 4-[4-(2-Methoxy-phenyl)-5-(7-methyl-4-oxo-4H-pyrido[1,2-a]pyrimidin-2-ylmethylsulfanyl)-4H-[1,2,4]triazol-3-yl]-benzonitrile] | – | –
22 | 6.68 | 79 | COc1ccccc1-n1c(SCc2ccc3ccccc3n2)nnc1-c1cccs1 [Example 68, 2-[4-(2-Methoxy-phenyl)-5-thiophen-2-yl-4H-[1,2,4]triazol-3-ylsulfanylmethyl]-quinoline] | – | –
23 | 7.55 | 103 | COc1ccccc1-n1c(SCc2cc(=O)n3cc(C)ccc3n2)nnc1-c1cccs1 [Example 48, 2-[4-(2-Methoxy-phenyl)-5-thiophen-2-yl-4H-[1,2,4]triazol-3-ylsulfanylmethyl]-7-methyl-pyrido[1,2-a]pyrimidin-4-one] | – | –
24 | 7.38 | 121 | COc1ccccc1-n1c(SCc2nc(=O)c3cc(C)ccc3[nH]2)nnc1-c1cccs1 [Example 59, 2-[4-(2-Methoxy-phenyl)-5-thiophen-2-yl-4H-[1,2,4]triazol-3-ylsulfanylmethyl]-6-methyl-1H-quinazolin-4-one] | – | –
25 | 7.35 | 52 | COc1ccccc1-n1c(OCc2cc(=O)n3cc(C)ccc3n2)nnc1-c1cccs1 [Example 83, 2-(((4-(2-methoxyphenyl)-5-(thiophen-2-yl)-4H-1,2,4-triazol-3-yl)oxy)methyl)-7-methyl-4H-pyrido[1,2-a]pyrimidin-4-one] | – | –
26 | < 5.00 | 120 | COc1ccccc1-n1c(SCc2csc(-c3ccc([N+](=O)[O-])cc3)n2)nnc1-c1cccs1 [Example 34, 4-(2-Methoxy-phenyl)-3-[2-(4-nitro-phenyl)-thiazol-4-ylmethylsulfanyl]-5-thiophen-2-yl-4H-[1,2,4]triazole] | – | –
27 | 5.41 | 102 | COc1ccccc1-n1c(SCc2coc(-c3ccc(OC(F)(F)F)cc3)n2)nnc1-c1cccs1 [Example 43, 4-(2-Methoxy-phenyl)-3-thiophen-2-yl-5-[2-(4-trifluoromethoxy-phenyl)-oxazol-4-ylmethylsulfanyl]-4H-[1,2,4]triazole] | – | –

Row | Structure (SMILES) | pEC50 [1] | Emax [2] [%] | pEC50 | Emax [%]
28 | COc1ccccc1-n1c(SCc2nc(=O)c3cc(OC(F)(F)F)ccc3[nH]2)nnc1-c1cccs1 [Example 69, 2-[4-(2-Methoxy-phenyl)-5-thiophen-2-yl-4H-[1,2,4]triazol-3-ylsulfanylmethyl]-6-trifluoromethoxy-1H-quinazolin-4-one] | 5.86 | – | – | 59
